From patent publication US10787452B2 (Vertex Pharmaceuticals Incorporated, priority 2012, dated 2020)

System: HCT116 colorectal cancer cells
Assay: Cisplatin sensitization assay (96 h cell viability MTS);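 further: compound concentration needed to lower the Cisplatin-alone IC50 by a set fold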
Type: cell-based
Conditions: 96 h MTS, compound plus Cisplatin
Method: Compounds can be screened for their ability to sensitize HCT116 colorectal cancer cells to Cisplatin using a 96 h cell viability (MTS) assay. […] Compounds and Cisplatin are then both added simultaneously to the cell media in 2-fold serial dilutions from a top final concentration of 10 μM as a full matrix of concentrations in a final cell volume of 200 μl, and the cells are then incubated at 37° C. in 5% CO2. After 96 h, 40 μl of MTS reagent (Promega G358a) is added to each well and the cells are incubated for 1 h at 37° C. in 5% CO2.

Row | Compound | Cisplatin Sensitization Assay
1 | N#CCc1cnc2c(C(=O)Nc3cnccc3OC3CCCCC3)c(N)nn2c1 [I-O-39, 2-amino-6-(cyanomethyl)-N-(4-(cyclohexyloxy)pyridin-3-yl)pyrazolo[1,5-a]pyrimidine-3-carboxamide] | +++ (Compounds with a Cisplatin sensitization value of <0.02 μM are marked with “+++.”)
2 | Nc1nn2cc(F)cnc2c1C(=O)Nc1cnccc1N1CCN(C(=O)C2COC2)CC1 [I-N-249] | +++ (Compounds with a Cisplatin sensitization value of <0.02 μM are marked with “+++.”)
3 | COC1CN(C(=O)C2CCN(c3c(F)cncc3NC(=O)c3c(N)nn4cc(F)cnc34)CC2)C1 [I-G-21, 2-amino-6-fluoro-N-(5-fluoro-4-(4-(3-methoxyazetidine-1-carbonyl)piperidin-1-yl)pyridin-3-yl)pyrazolo[1,5-a]pyrimidine-3-carboxamide] | +++ (Compounds with a Cisplatin sensitization value of <0.02 μM are marked with “+++.”)
4 | Nc1nn2cc(F)cnc2c1C(=O)Nc1cnccc1N1CCN(C2CCOC2)CC1 (racemic) [I-N-19, (R,S)-2-amino-6-fluoro-N-(4-(4-(tetrahydrofuran-3-yl)piperazin-1-yl)pyridin-3-yl)pyrazolo[1,5-a]pyrimidine-3-carboxamide] | +++ (Compounds with a Cisplatin sensitization value of <0.02 μM are marked with “+++.”)
5 | Nc1nn2cc(F)cnc2c1C(=O)Nc1cncc(F)c1C1=CCN(C2COC2)CC1 [I-C-12, 2-amino-6-fluoro-N-(5-fluoro-1′-(oxetan-3-yl)-1′,2′,3′,6′-tetrahydro-[4,4′-bipyridin]-3-yl)pyrazolo[1,5-a]pyrimidine-3-carboxamide] | +++ (Compounds with a Cisplatin sensitization value of <0.02 μM are marked with “+++.”)
6 | N#CCc1cnc2c(C(=O)Nc3cnccc3OC3CCCC3)c(N)nn2c1 [I-O-43, 2-amino-6-(cyanomethyl)-N-(4-(cyclopentyloxy)pyridin-3-yl)pyrazolo[1,5-a]pyrimidine-3-carboxamide] | +++ (Compounds with a Cisplatin sensitization value of <0.02 μM are marked with “+++.”)
7 | Cn1cncc1-c1ccncc1NC(=O)c1c(N)nn2cc(F)cnc12 [I-C-56, 2-amino-6-fluoro-N-(4-(1-methyl-1H-imidazol-5-yl)pyridin-3-yl)pyrazolo[1,5-a]pyrimidine-3-carboxamide] | +++ (Compounds with a Cisplatin sensitization value of <0.02 μM are marked with “+++.”)
8 | Nc1nn2cc(Cl)cnc2c1C(=O)Nc1cnccc1O[C@@H]1CCNC1 [I-O-77, (R)-2-amino-6-chloro-N-(4-(pyrrolidin-3-yloxy)pyridin-3-yl)pyrazolo[1,5-a]pyrimidine-3-carboxamide] | ++ (Compounds with a Cisplatin sensitization value >0.02 μM but <0.2 μM are marked with “++.”)
9 | Nc1nn2cc(F)cnc2c1C(=O)Nc1cnccc1N1CCC(S(=O)(=O)N2CCOCC2)CC1 [I-N-170, 2-amino-6-fluoro-N-(4-(4-(morpholinosulfonyl)piperidin-1-yl)pyridin-3-yl)pyrazolo[1,5-a]pyrimidine-3-carboxamide] | +++ (Compounds with a Cisplatin sensitization value of <0.02 μM are marked with “+++.”)
10 | CN1CCN2CCN(c3ccncc3NC(=O)c3c(N)nn4cc(Cl)cnc34)CC2C1 (stereo not drawn) [I-N-61, 2-amino-6-chloro-N-(4-(8-methylhexahydro-1H-pyrazino[1,2-a]pyrazin-2(6H)-yl)pyridin-3-yl)pyrazolo[1,5-a]pyrimidine-3-carboxamide] | +++ (Compounds with a Cisplatin sensitization value of <0.02 μM are marked with “+++.”)
11 | CN1CCN(CC2CCN(c3c(F)cncc3NC(=O)c3c(N)nn4cc(F)cnc34)CC2)C(=O)C1 [I-N-193, 2-amino-6-fluoro-N-(5-fluoro-4-(4-((4-methyl-2-oxopiperazin-1-yl)methyl)piperidin-1-yl)pyridin-3-yl)pyrazolo[1,5-a]pyrimidine-3-carboxamide] | +++ (Compounds with a Cisplatin sensitization value of <0.02 μM are marked with “+++.”)
12 | Nc1nn2cc(F)cnc2c1C(=O)Nc1cncc(F)c1N1CCC(C(=O)N2CCN(C3CC3)CC2)CC1 [I-G-13, 2-amino-N-(4-(4-(4-cyclopropylpiperazine-1-carbonyl)piperidin-1-yl)-5-fluoropyridin-3-yl)-6-fluoropyrazolo[1,5-a]pyrimidine-3-carboxamide] | +++ (Compounds with a Cisplatin sensitization value of <0.02 μM are marked with “+++.”)
13 | CN1CCC[C@H]1COc1ccncc1NC(=O)c1c(N)nn2cc(Cl)cnc12 [I-O-50, (S)-2-amino-6-chloro-N-(4-((1-methylpyrrolidin-2-yl)methoxy)pyridin-3-yl)pyrazolo[1,5-a]pyrimidine-3-carboxamide] | + (Compounds with a Cisplatin sensitization value >0.2 μM but <5 μM are marked with “+.”)
14 | Nc1nn2cc(Cl)cnc2c1C(=O)Nc1cnccc1N1CCNC(C(F)(F)F)C1 (stereo not drawn) [I-N-70, 2-amino-6-chloro-N-(4-(3-(trifluoromethyl)piperazin-1-yl)pyridin-3-yl)pyrazolo[1,5-a]pyrimidine-3-carboxamide] | ++ (Compounds with a Cisplatin sensitization value >0.02 μM but <0.2 μM are marked with “++.”)
15 | N#CCc1cnc2c(C(=O)Nc3cnccc3OC3COC3)c(N)nn2c1 [I-O-38, 2-amino-6-(cyanomethyl)-N-(4-(oxetan-3-yloxy)pyridin-3-yl)pyrazolo[1,5-a]pyrimidine-3-carboxamide] | +++ (Compounds with a Cisplatin sensitization value of <0.02 μM are marked with “+++.”)
16 | Nc1nn2cc(F)cnc2c1C(=O)Nc1cncc(F)c1N1CCN(C(=O)C2CC3CCCCN3C2)CC1 (stereo not drawn) [I-N-203, 2-amino-6-fluoro-N-(5-fluoro-4-(4-(octahydroindolizine-2-carbonyl)piperazin-1-yl)pyridin-3-yl)pyrazolo[1,5-a]pyrimidine-3-carboxamide] | +++ (Compounds with a Cisplatin sensitization value of <0.02 μM are marked with “+++.”)
17 | CC1(C)CCCN1c1ccncc1NC(=O)c1c(N)nn2cc(F)cnc12 [I-N-220, 2-amino-N-(4-(2,2-dimethylpyrrolidin-1-yl)pyridin-3-yl)-6-fluoropyrazolo[1,5-a]pyrimidine-3-carboxamide] | ++ (Compounds with a Cisplatin sensitization value >0.02 μM but <0.2 μM are marked with “++.”)
18 | Cn1cncc1-c1c(F)cncc1NC(=O)c1c(N)nn2cc(F)cnc12 [I-C-79, 2-amino-6-fluoro-N-(5-fluoro-4-(1-methyl-1H-imidazol-5-yl)pyridin-3-yl)pyrazolo[1,5-a]pyrimidine-3-carboxamide] | +++ (Compounds with a Cisplatin sensitization value of <0.02 μM are marked with “+++.”)
19 | CN1CC[C@@H](OC2CCN(c3ccncc3NC(=O)c3c(N)nn4cc(F)cnc34)CC2)C1 [I-N-131] | +++ (Compounds with a Cisplatin sensitization value of <0.02 μM are marked with “+++.”)
20 | CC1(C)CN(c2ccncc2NC(=O)c2c(N)nn3cc(F)cnc23)CCS1(=O)=O [I-N-252, 2-amino-N-(4-(2,2-dimethyl-1,1-dioxidothiomorpholino)pyridin-3-yl)-6-fluoropyrazolo[1,5-a]pyrimidine-3-carboxamide] | +++ (Compounds with a Cisplatin sensitization value of <0.02 μM are marked with “+++.”)
21 | Nc1nn2cc(F)cnc2c1C(=O)Nc1cncc(F)c1N1CCC(C(=O)NC2COC2)CC1 [I-G-37, 2-amino-6-fluoro-N-(5-fluoro-4-(4-(oxetan-3-ylcarbamoyl)piperidin-1-yl)pyridin-3-yl)pyrazolo[1,5-a]pyrimidine-3-carboxamide] | ++ (Compounds with a Cisplatin sensitization value >0.02 μM but <0.2 μM are marked with “++.”)
22 | CC(C)N1CCN(c2ccncc2NC(=O)c2c(N)nn3cc(Cl)cnc23)CC1 [I-N-39, 2-amino-6-chloro-N-(4-(4-isopropylpiperazin-1-yl)pyridin-3-yl)pyrazolo[1,5-a]pyrimidine-3-carboxamide] | ++ (Compounds with a Cisplatin sensitization value >0.02 μM but <0.2 μM are marked with “++.”)
23 | Nc1nn2cc(Cl)cnc2c1C(=O)Nc1cnccc1OCCO [I-O-66, 2-amino-6-chloro-N-(4-(2-hydroxyethoxy)pyridin-3-yl)pyrazolo[1,5-a]pyrimidine-3-carboxamide] | + (Compounds with a Cisplatin sensitization value >0.2 μM but <5 μM are marked with “+.”)
24 | Nc1nn2cc(Cl)cnc2c1C(=O)Nc1cnccc1-n1ccnc1 [I-N-29, N-(4-(1H-imidazol-1-yl)pyridin-3-yl)-2-amino-6-chloropyrazolo[1,5-a]pyrimidine-3-carboxamide] | ++ (Compounds with a Cisplatin sensitization value >0.02 μM but <0.2 μM are marked with “++.”)
25 | CN1CCN(C(=O)C2CCN(c3c(F)cncc3NC(=O)c3c(N)nn4cc(F)cnc34)C2)CC1 (stereo not drawn) [I-N-191, 2-amino-6-fluoro-N-(5-fluoro-4-(3-(4-methylpiperazine-1-carbonyl)pyrrolidin-1-yl)pyridin-3-yl)pyrazolo[1,5-a]pyrimidine-3-carboxamide] | + (Compounds with a Cisplatin sensitization value >0.2 μM but <5 μM are marked with “+.”)
26 | CN1CCC[C@@H]1C(=O)N1CCN(c2c(F)cncc2NC(=O)c2c(N)nn3cc(F)cnc23)CC1 [I-N-181, (R)-2-amino-6-fluoro-N-(5-fluoro-4-(4-(1-methylpyrrolidine-2-carbonyl)piperazin-1-yl)pyridin-3-yl)pyrazolo[1,5-a]pyrimidine-3-carboxamide] | +++ (Compounds with a Cisplatin sensitization value of <0.02 μM are marked with “+++.”)
27 | CN1C(=O)CCC12CCN(c1ccncc1NC(=O)c1c(N)nn3cc(F)cnc13)CC2 [I-N-235, 2-amino-6-fluoro-N-(4-(1-methyl-2-oxo-1,8-diazaspiro[4.5]decan-8-yl)pyridin-3-yl)pyrazolo[1,5-a]pyrimidine-3-carboxamide] | ++ (Compounds with a Cisplatin sensitization value >0.02 μM but <0.2 μM are marked with “++.”)
